Source: patent US20120065226A1, “SALTS OF […] 10-CAMPH[…]” (ADAMED SP Z O.O., priority 2009, published 2012)
Where a name gives a salt, the structure may show the parent alone.

Experiments:
[1] = Hygroscopicity of the crystals; assay type: physicochemical
[2] = Recrystallization from various organic solvents, crystalline form by XRPD; assay type: physicochemical; conditions: XRPD analysis
Source text: The process for the preparation of novel tiotropium salts with 10-camphorsulphonic acid and with single optical isomers thereof as well as monohydrates of the salts according to the present invention allows to obtain the desired product as stable, non-hygroscopic crystals, with high yield and with purity acceptable for being used in pharmaceutical compositions. Stability of crystalline anhydrous tiotropium salts with 1R-(−)-10-camphorsulphonic and 1S-(+)-10-camphorsulphonic acids was confirmed experimentally. […] Therefore, no transformation or modification of a crystalline salt takes place.
XRPD patterns were obtained using Rigaku MiniFlex X-ray diffractometer, with Cu Kα radiation, filter Kβ. Lamps parameters were set at 30 kV and 15 mA. Divergence and scattering slits were set at 4.2°, and a receiving slit was set at 0.3 mm. Deflection of rays was detected with scintillation detector NaI. The θ/2θ continuous scan at 1°/min with a step of 0.02° from 2.0 to 40° 2θ was used. The samples were prepared by pressing the solid in a quartz holder.

CC1(C)C2CC[C@]1(CS(=O)(=O)[O-])C(=O)C2.C[N+]1(C)C2CC(OC(=O)C(O)(c3cccs3)c3cccs3)CC1C1OC12.O (stereo not drawn) [Crystalline monohydrate of tiotropium salt with 1R-(−)-10-camphorsulphonic acid]
hygroscopicity [1]: non-hygroscopic

CC1(C)C2CC[C@@]1(CS(=O)(=O)[O-])C(=O)C2.C[N+]1(C)C2CC(OC(=O)C(O)(c3cccs3)c3cccs3)CC1C1OC12.O (stereo not drawn) [Crystalline monohydrate of tiotropium salt with 1S-(+)-10-camphorsulphonic acid]
hygroscopicity [1]: non-hygroscopic

C[N+]1(C)C2CC(OC(=O)C(O)(c3cccs3)c3cccs3)CC1C1OC12 (stereo not drawn) [Tiotropium salt with 1R-(−)-10-camphorsul-phonic acid, anhyd] [Tiotropium salt with 1R-(−)-10-camphorsulphonic acid (anhydrous)]
crystalline form after recrystallization [2]: initial crystalline form

C[N+]1(C)C2CC(OC(=O)C(O)(c3cccs3)c3cccs3)CC1C1OC12 (stereo not drawn) [Tiotropium salt with 1S-(+)-10-camphorsul-phonic acid, anhyd] [Tiotropium salt with 1S-(+)-10-camphorsulphonic acid (anhydrous)]
crystalline form after recrystallization [2]: initial crystalline form
